A short description of series [1]: Extraction and back-extraction with p-diisopropylbenzene or 1,7-octadiene: rhodium concentration in both phases, composition of extraction solution. It is filed as physicochemical. The protocol: Examples […] illustrate yet another embodiment of the process of the present invention wherein extraction solution containing dissolved rhodium is back-extracted with either hydroformylation solvent or olefinic feedstock to reduce the concentration of rhodium in the extraction solution.
The general procedure described in Examples 31-48 was used to extract 60.5 mL of hydroformylation product solution obtained by the hydroformylation of 1,7 octadiene in the presence of a catalyst system comprising rhodium and BISBI phosphine (Reference Example 9). […] The extraction flask was charged with the hydroformylation product solution, 37 mL methanol, 12 mL water and […] [Na] provided as sodium oleate.
For Example 88, the extraction mixture was stirred at room temperature for 30 minutes and then drained into a calibrated, addition funnel and allowed to stand for about five minutes to permit phase separation. The volume of the hydroformylation product solution (organic) phase was 45 mL and the volume of the extraction solution phase was 65 ml. Samples of each phase were taken for rhodium and product composition analyses.
For Example 89, the extraction solution phase separated in Example 88 was added to a clean 250 mL flask along with 30 mL of p-diisopropylbenzene and the mixture was stirred at 50° C. for 30 minutes, was allowed to stand at 50° C. for about 5 minutes to permit phase separation and then each phase was separated and analyzed for composition and rhodium concentration.
For Example 90, the extraction solution separated in Example 89 was added to a clean 250 mL flask along with another 30 mL of p-diisopropylbenzene hydroformylation solvent. The mixture was agitated at 50° C. for thirty minutes, allowed to stand at 50° C. for 5 minutes to permit phase separation and each phase was analyzed for composition and rhodium concentration.
This scheme would be useful in a counter-current extraction method for recycling recovered hydroformylation product solution as well as in using the olefinic feed to the reactor as a back extraction solvent for recovering soluble rhodium from the methanol/water extract.
Example 91 was carried out using the procedure described in Examples 88. The flask was charged with 62 mL of a hydroformylation product solution (Reference Example 10) having a rhodium concentration 166 mg/L and containing 3.01 g of C9-enal, 12.69 g of C10-dial and 37.84 grams of p-diisopropylbenzene. Methanol (37 ml), water (16 ml) and 78 mg Na (as sodium 2-ethylhexanoate) were added to the flask. This mixture was stirred at 50° C. for 30 minutes and then allowed to stand for 5 minutes at 50° C. to permit phase separation. The hydroformylation product solution (organic) phase and the extraction solution phase were both sampled and analyzed for rhodium concentration. The 2 phases were drained into a clean, graduated addition funnel and the volumes of the two phases were measured. The volume of the organic layer was 43 mL and the extraction solution layer was 62 mL.
For Example 92, the extraction solution phase produced in Example 91 was added to a clean, 250 mL flask along with 30 mL of p-diisopropylbenzene and the mixture was stirred at 50° C. for 30 minutes and then allowed to separate into two phases. The two phases were analyzed for rhodium concentration and composition. The mixture was drained into a clean addition funnel to separate the two phases. For Example 93, the extraction solution phase of Example 92 and 30 mL of 1,7-octadiene were added to a clean, 250 mL flask. This mixture was stirred at 50° C. for 30 minutes and then allowed to separate into two phases which were analyzed for rhodium concentration.
The amounts (g) of C9-enal, C10-dial in the sample of hydroformylation product solution initially extracted and in the methanol/water extraction solutions resulting from Examples 91, 92 and 93 are given in Table XIII. The ratio given in Table XIII is the weight ratio of C10-dial:C9-enal. […]

Series [2] in a line: Partitioning (partition coefficient, Kp) of hydroformylation products and hydroformylation solvent between hydroformylation solvent phase and alkanol/water extraction solution phase. Format: physicochemical. An excerpt:
The extraction process described herein is the equilibration of a particular compound dissolving into two separate liquid phases. The effectiveness of the present extraction process may be measured in terms of the partition coefficient (Kp) for a compound "X" which is defined as: [formula] […] High Kp values give high extraction efficiencies requiring lower amounts of extraction solution. Similarly, it is desirable that the Kp of the hydroformylation solvent be a low value. This simplifies purification of the aldehyde products down-stream. In the hydroformylation of diolefins to dialdehydes, it also is desirable to have Kp values for the dialdehyde products larger than the Kp values of the intermediate mono-aldehyde mono-olefin (formyl-olefin) intermediate formed in the hydroformylation reaction. This permits recycling of the formyl-olefin to the hydroformylation reactor in the hydroformylation solvent for further reaction to the desired dialdehyde product, while selectively extracting the desired di-aldehyde product. Likewise, for the same reason, it is desirable to have low Kp values for the olefin or polyolefin feedstocks used in the process.
The extraction examples were carried out in a 300 mL, 3-neck, glass flask equipped with a Teflon magnetic stir bar, a thermometer to measure the temperature of the liquid, a septum for the use of a syringe, a heating mantle and a nitrogen bubbler blanket for the system. […] […] The mixture was stirred at 25° C. for 30 minutes to reach equilibrium, stirring was stopped, and the mixture was allowed to separate into 2 layers (phases) over a 30 minute period of time. […] Samples of each phase were taken with a syringe and chromatographed on a Hewlett Packard Model 5730 capillary FID gas chromatograph. The instrument used a 30 meter DB-1 column (Supelco.) with a programming rate of a 4 minute hold at 70° C. with a programming rate of 8° C./minute to 250° C. The calculations for the weights of hydroformylation products in each phase were carried out using standard procedures using the dodecane as an internal standard for the catalyst layer and methanol as the internal standard for the aqueous layer. The initial volumes of the two phases were used for estimation of the volumes of the two phases at equilibrium to obtain the concentrations of the products in each phase.
The partition coefficients (Kp) were calculated for the C9-enal and C10-dial products for equilibrium between the dodecane hydroformylation solvent and the extraction solution phases at 25° C.
The two phases in the flask were heated to and maintained at 53° C. with stirring for 30 minutes to reach equilibrium. The mixture was allowed to separate into 2 layers at 53° C. and each layer was sampled and analyzed as described above. […] The partitioning procedure was repeated at 70° C.

Where [3] appears, read: Example 92, after p-diisopropylbenzene back-extraction.
Where [4] appears, read: Example 93, after 1,7-octadiene back-extraction.

For the compound isomeric noneneal [C9-enal], the “Composition of Extraction Solution (amount)” value in series [1] (Example 91) is recorded as 1.39 g; in series [1] (setting [3]) it was 0.51 g; in series [1] (setting [4]) it was 0.18 g.
Regarding `C1CCC2CCCCC2C1` (stereo not drawn) [decahydronaphthalene], the “Partition Coefficient” value in series [2] (Example C-4, Ref. Ex. 17, DEG:water 1:1, 25° C.) stood at 0.0050; in series [2] (Example C-5, Ref. Ex. 17, DEG:water 1:1, 70° C.) it was 0.034.
In the case of isomeric decanedialdehyde [C10-dial], the “Composition of Extraction Solution (amount)” value in series [1] (Example 91) stood at 11.67 g; in series [1] (setting [3]), 9.21 g; in series [1] (setting [4]), 6.11 g. The “Weight ratio of C10-dial:C9-enal in extraction solution” value in series [1] (Example 91) was 8.40; in series [1] (Example 92), 18.06; in series [1] (Example 93) it was 33.94.
On to `c1ccc2c(c1)CCCC2` [tetrahydronaphthalene], for which the “Partition Coefficient” value in series [2] (Example 15, Ref. Ex. 22, MeOH:water 1.5:1, 52° C.) came to 0.079; in series [2] (Example C-6, Ref. Ex. 18, DEG:water 3:1, 25° C.), 0.092.
`CCCCC(CC)COC(=O)c1ccccc1C(=O)OCC(CC)CCCC` (stereo not drawn) [di-(2-ethylhexyl) phthalate]: the “Partition Coefficient” value in series [2] (Example 16, Ref. Ex. 23, MeOH:water 3:1, 50° C.) is on record as 0.0448; in series [2] (Example 17, Ref. Ex. 23, MeOH:water 1:1, 50° C.), 0.0037.

The record behind these values is patent US5138101A, “Recovery of high-boiling aldehydes from rhodium-catalyzed hydroformylation processes” (Eastman Kodak Company, priority 1991, dated 1992).
